“Also recorded” adds a separate entry of the source. Read-outs that look alike come from different tables or passages of the source. Where a SMILES comes first, the peptide text is derived from it. The star is where a group is joined. Cbz = O=C(OCc1ccccc1)*
Tests used:
α-synuclein [1] = experiment: α-synuclein protein level in day 30 iPSC-derived mDA (DaN) cultures after drug treatment (western blot, immunostaining); format: cell-based, human; settings: for α-synuclein levels (western blot): EOSPD/PD cultures (190iPD); for α-synuclein levels (western blot) / amount of α-synuclein protein (western blot): treated 3 days from day 27, PEP005 1 μM, SMER-28 5 μM, Trehalose; for amount of α-synuclein protein (western blot): control line cultures (02iCTR); for α-synuclein level: phorbol ester PKC agonists, PMA 10 μM, PRO 5 μM, day 27-30; for synuclein level: D30 mDA neurons (FIG. 37)
Method: (§1) iPSC maintenance, mDA neuron differentiation and drug treatments: iPSCs were maintained in E8 media on Matrigel and passaged every 5 days at split ratios from 1:6 to 1:12 as needed using Versene. Only iPSCs between passage 17 and passage 35 were used in this study. For differentiation, iPSCs were grown to ˜80% confluency. Cells were singularized with Accutase (Millipore/Sigma #SCR005) (5 minutes at 37° C.) and plated onto Matrigel-coated 6-well plates (BD Biosciences) at 200K cells per cm^2 (for a fully confluent monolayer) in E8 media with 5 μM Y27632 (StemGent). 24 hours after plating, media was changed to Stage 1 (50% DMEM/F12, 50% Neurobasal, N2, B27-Vitamin A, LDN-193189 (LDN), SB431542 (SB)). Stage 1 media was changed each day (3 mL per well) for 3 days. Media was next switched to Stage 2 (50% DMEM/F12, 50% Neurobasal, N2, B27-Vitamin A, LDN, SB, Purmorphamine (PMN), CHIR99021 (CHIR), Sonic hedgehog (SHH), Fibroblast Growth Factor 8 (FGF8)). Stage 2 media was changed each day (3 mL per well) for 4 days. Media was then switched to Stage 3 (50% DMEM/F12, 50% Neurobasal, N2, B27-Vitamin A, LDN, CHIR, all-trans-Retinoic acid (ATRA)). Stage 3 media was changed each day (3 mL per well) for 4 days. Finally, media was switched to Stage 4 (50% DMEM/F12, 50% Neurobasal, N2, B27+Vitamin A, Brain-Derived Neurotrophic Factor (BDNF), Glial Cell Line-Derived Neurotrophic Factor (GDNF), dibutyryl cyclic-AMP sodium salt (dbCAMP), L-Ascorbic Acid (AA), γ-Secretase inhibitor (DAPT), CHIR, Transforming Growth Factor beta-3 (TGF β3)). Stage 4 media was changed each day (3 mL per well) for 3 days. On day 15, cells were dissociated to single cells using Accutase (20 mins at 37° C.) and gently lifted. Dissociated cells were resuspended in Maturation Medium (50% DMEM/F12, 50% Neurobasal, N2, B27+Vitamin A, BDNF, GDNF, dbCAMP, AA, DAPT, TGF3) plus 5 μM Y27632 and reseeded onto Matrigel-coated 6-well plates at 200 k/cm^2 in 1 mL total volume or onto Matrigel-coated L-glass coverslips in a 24-well plate at 200 k/50 μL drop. Cells were allowed to attach for 45 mins at 37° C. and Maturation Medium was then added to final volumes of 3 mL per well for 6-well plates or 1.5 mL per well for 24-well plates with coverslips. A full medium change was performed 48-hours post-seeding and medium was changed every 3 days until day 30. For drug treatments, cells at day-27 were fed with Maturation Medium containing the indicated drug and cells were analyzed at day 30.
Immunocytochemistry and imaging: mDA neuron cultures were plated on L-glass coverslips and grown as above. Day 30 neurons were fixed in 4% PFA at room temperature for 10-15 mins. Fixed coverslips were washed in PBS and permeabilized for 10 minutes at room temperature in 1% Triton X-100 in PBS, followed by staining in primary antibody solution (5% normal donkey serum, 0.125% Triton-X, PBS) overnight at 4° C. with the following antibodies: TH (1:5000, Immunostar #22941) and α-synuclein (1:500, Abcam #ab138501). Samples were washed 3 times in PBS and stained with species-specific Alexa Fluor 488 or 594-conjugated secondary antibodies (1:500, Invitrogen) for 2 hours at room temperature, followed by DAPI counterstain. Confocal Z-stack images were acquired using a A1 microscope (Nikon) with 40× and 20× objectives and rendered using maximum intensity projection through IMARIS software (Bitplane).
Western blot: Cells were gently scraped off the plates, washed with PBS, centrifuged at 15000 RPM for 1 min, and dry pellets were frozen at −80° C. Samples were then thawed and lysed using 1×NETN buffer (20 mM Tris-HCl (pH 8.0), 100 mM NaCl, 0.5 mM EDTA and 0.5% NP-40) supplemented with phosphatase/protease inhibitor cocktail (MS-SAFE, Sigma-Aldrich). Lysates were sonicated in an automated cold bath sonicator for 20 mins using alternating 10 sec pulses followed by 10 sec rests. Samples were centrifuged for 20 min at 4° C. at 15000 RPM. Total soluble protein concentrations were measured using a Bradford assay (BIO-RAD). […]

P53 = P53 level in mDA cultures under proteasome inhibitor, 24 hrs (western blot); format: cell-based, human; settings: mDA/DaN cultures, 24 hrs treatment
Method: Protein degradation can be largely divided into protosomal and autophagy/lysosomal degradation pathways.
Western blot: Cells were gently scraped off the plates, washed with PBS, centrifuged at 15000 RPM for 1 min, and dry pellets were frozen at −80° C. Samples were then thawed and lysed using 1×NETN buffer (20 mM Tris-HCl (pH 8.0), 100 mM NaCl, 0.5 mM EDTA and 0.5% NP-40) supplemented with phosphatase/protease inhibitor cocktail (MS-SAFE, Sigma-Aldrich). Lysates were sonicated in an automated cold bath sonicator for 20 mins using alternating 10 sec pulses followed by 10 sec rests. Samples were centrifuged for 20 min at 4° C. at 15000 RPM. Total soluble protein concentrations were measured using a Bradford assay (BIO-RAD). […] Combined α-synuclein and p-PKCα expression plots were calculated by first normalizing bands to β-actin, then to the 02iCTR signal present in each blot. […] ROC plot and area under the curve was determined using R package ROCR to determine predicative probability percentages.
To test overall degradation rates, global […] function was inhibited in culture for 48 hours via cycloheximide treatment and protein was assessed and quantified over time. […] A significant reduction in the amount of LAMP1 was detected in all 3 EOSPD lines, which was consistent with the proteomics analysis. […]

α-synuclein [2] = experiment: α-synuclein protein level in day 30 iPSC-derived mDA (DaN) cultures after drug treatment (western blot, immunostaining); format: cell-based, human; settings: control and EOSPD cultures, 24 hrs treatment
[3] = test system: tyrosine hydroxylase (TH); format: cell-based, human; settings: mDA cultures, phorbol ester PKC agonists; PMA 10 μM, PRO 5 μM, day 27-30
Method: as §1
Analytical flow cytometry: Day-30 cultures in 6-well plates were washed once in phosphate buffered saline (PBS) then 1 mL Accutase was added to each well and incubated for 25 mins at 37° C. or until the cells fully lifted. Cells were washed with an additional 2 mL Maturation Medium and very gently triturated until large clumps were no longer visible at which point cells were pelleted by centrifugation (1500 RPM for 3 mins). Cells were gently resuspended in 4% paraformaldehyde (PFA) in PBS and allowed to fix for 10-15 mins at room temperature. Fixed single cells were permeabilized using 1% Trition X-100 (Sigma-Aldrich) and stained using primary antibodies against TH (1:500 Immunostar, 22941), α-synuclein (1:1000 Abcam, ab138501), and MAP2ab (1:1000 Sigma-Aldrich, M1406), or isotype controls at same dilution (Cell Signaling IgG Isotype Control rabbit #3900S and mouse #5415S). Secondary antibodies (Alexa Fluor 488 and 594 donkey anti-mouse and donkey anti-rabbit, Invitrogen) were used at 1:500. Stained samples were quantified on an LSR Fortessa cytometer using BD FACSDiva software.
Immunocytochemistry and imaging: mDA neuron cultures were plated on L-glass coverslips and grown as above. Day 30 neurons were fixed in 4% PFA at room temperature for 10-15 mins. […]

p-PKCα = settings: for phospho PKCα level: D30 mDA neurons (FIG. 37)

## C=CCNc1ncnc2ccc(Br)cc12 [SMER28]
α-synuclein [1]
  α-synuclein levels (western blot): not
  amount of α-synuclein protein (western blot): significantly reduced
α-synuclein [1]; listed as SMER-28
  amount of α-synuclein protein (western blot): reduction

## CC(C)C[C@@H](C=O)NC(=O)[C@H](CC(C)C)NC(=O)[C@H](CC(C)C)NC(=O)OCc1ccccc1 [MG132] (Cbz-Leu-Leu-Leu-aldehyde)
P53
  P53 level: accumulation
α-synuclein [2]
  α-synuclein levels under proteasome inhibition: no significant increase; also recorded: no substantial change

## OC[C@H]1O[C@H](O[C@H]2O[C@H](CO)[C@@H](O)[C@H](O)[C@H]2O)[C@H](O)[C@@H](O)[C@@H]1O [Trehalose]
α-synuclein [1]
  α-synuclein levels (western blot): reduced; also recorded: reduction

## CC(=O)O[C@@]12C[C@@H](C)[C@@]3(O)[C@@H](C=C(CO)C[C@]4(O)C(=O)C(C)=C[C@@H]34)[C@@H]1C2(C)C [PRO, Prostratin]
α-synuclein [1]; dose response study, mDA cultures
  α-synuclein expression, dose response: decreased
α-synuclein [1]; mDA cultures
  α-synuclein level: reduction
[3]
  TH level: increases

## CCCCCCCCCCCCCC(=O)O[C@@H]1[C@@H](C)[C@@]2(O)[C@@H](C=C(CO)C[C@]3(O)C(=O)C(C)=C[C@@H]23)[C@@H]2C(C)(C)[C@]12OC(C)=O [PMA, Phorbol 12-myristate 13-acetate]
α-synuclein [1]; mDA cultures
  α-synuclein level: reduction
p-PKCα; mDA cultures, phorbol ester PKC agonists, PMA 10 μM, PRO 5 μM, day 27-30
  p-PKCα level: reduction
[3]
  TH level: increases

## CCC/C=C/C=C/C(=O)O[C@H]1/C(=C/C(=O)OC)C[C@H]2C[C@H]([C@@H](C)O)OC(=O)C[C@H](O)C[C@@H]3C[C@H](OC(C)=O)C(C)(C)[C@](O)(C[C@@H]4C/C(=C/C(=O)OC)C[C@H](/C=C/C(C)(C)[C@]1(O)O2)O4)O3 [Bryostatin 1]
α-synuclein [1]
  synuclein level: unclear effects
α-synuclein [1]; listed as Bryostratin
  synuclein level: did not seem to affect
p-PKCα
  phospho PKCα level: reduction
p-PKCα; listed as Bryostratin
  phospho PKCα level: did not seem to affect

Reference: patent publication US12564568B2, “PKC pathway in Parkinson's Disease” (CEDARS-SINAI MEDICAL CENTER, priority 2018, dated 2026)
